# T1: LOG protein (Oryza sativa subsp. japonica, UniProt Q5ZC82)
# T1 sequence (Q5ZC82 1-242): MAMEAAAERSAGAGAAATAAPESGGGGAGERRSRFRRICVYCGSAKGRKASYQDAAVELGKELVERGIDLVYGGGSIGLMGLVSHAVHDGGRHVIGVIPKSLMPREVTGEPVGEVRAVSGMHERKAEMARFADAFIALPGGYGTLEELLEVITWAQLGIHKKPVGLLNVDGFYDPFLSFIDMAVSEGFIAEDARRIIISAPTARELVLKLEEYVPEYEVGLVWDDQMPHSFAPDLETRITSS
# B1: AtLOG4: Arabidopsis thaliana LOG homolog protein, gene At3g53450, amino acid sequence SEQ ID NO: 10, purified from E. coli (protein, listed as Arabidopsis sp.)
# chain: MEVNNETMQKSKFGRICVFCGSSQGKKSSYQDAAVDLGNELVLRNIDLVYGGGSIGLMGLVSQAVHDGGRHVIGVIPKTLMPRELTGETVGEVRAVADMHQRKAEMARHSDAFIALPGGYGTLEELLEVITWAQLGIHDKPVGLLNVDGYYNSLLSFIDKAVEEGFISTNARQIIISAPTAKELVKKLEEYSPCHESVATKLCWEIERIDYSSED
# B2: AtLOG7: Arabidopsis thaliana LOG homolog protein, gene At5g06300, amino acid sequence SEQ ID NO: 14, purified from E. coli (protein, listed as Arabidopsis sp.)
# chain: MEETKSRFKRICVFCGSSSGKKPSYQEAAIQLGNELVERRIDLVYGGGSVGLMGLVSQAVHHGGRHVLGVIPKTLMPREITGETIGEVKAVADMHQRKAEMARQADAFIALPGGYGTLEELLEVITWAQLGIHRKPVGLLNVDGYYNSLLTFIDKAVDEGFISPMARRIIVSAPNAKELVRQLEEYEPEFDEITSKLVWDEVDRISYVPGSEVATAT
# B3: AtLOG3: Arabidopsis thaliana LOG homolog protein, gene At2g37210, amino acid sequence SEQ ID NO: 8, purified from E. coli (protein, listed as Arabidopsis sp.)
# chain: MEIKGESMQKSKFRRICVFCGSSQGKKSSYQDAAVDLGNELVSRNIDLVYGGGSIGLMGLVSQAVHDGGRHVIGIIPKTLMPRELTGETVGEVRAVADMHQRKAEMAKHSDAFIALPGGYGTLEELLEVITWAQLGIHDKPVGLLNVDGYYNSLLSFIDKAVEEGFISPTAREIIVSAPTAKELVKKLEEYAPCHERVATKLCWEMERIGYSSEE
# B4: AtLOG5: Arabidopsis thaliana LOG homolog protein, gene At4g35190, amino acid sequence SEQ ID NO: 12, purified from E. coli (protein, listed as Arabidopsis sp.)
# chain: MEIVKSRFKRVCVFCGSSSGKRECYSDAATDLAQELVTRRLNLVYGGGSIGLMGLVSQAVHEAGGHVLGIIPRTLMDKEITGETYGEVIAVADMHERKAEMARHSDCFIALPGGYGTLEELLEVIAWAQLGIHDKPVGLLNVDGYYNYLLTFIDKAVDDGFIKPSQRHIFVSAPNAKELVQKLEAYKPVNDGVIAKSRWEVEKKVQQPQQQQQVVFCSNTSMQTEIAL
# Columns and labels:
# LOG protein [1] = target: T1, LOG protein; assay: Substrate specificity of LOG protein to nucleotide cytokinin forms and AMP; type: biochemical; design: the protein coding region of the LOG gene cDNA was inserted into pCOLD-I (TaKaRa), a His-tag protein expression vector; made in house; host or cells: E. coli BL21(DE3)[pG-Tf2]; conditions: 0.02 μg LOG protein, 100 μM substrate, pH 6.5, 4 minutes (iPRDP, iPRTP: 0.01 μg, 2 minutes)
# Description: The reaction specificity of the LOG protein to a nucleotide cytokinin form was analyzed. […] The following 7 types of substrates were used: iPRMP, tZRMP, dihydrozeatin riboside 5′-monophosphate (DZRMP), cZR 5′-monophosphate (cZRMP), iPR 5′-diphosphate (iPRDP), iPR 5′-triphosphate (iPRTP), and AMP. The reaction conditions are as follows. 0.02 μg of the LOG protein was used for a single reaction, and it was reacted with a 100 μM substrate in 200 μl of a reaction solution containing 50 mM Tris-HCl, 1 mM MgCl2, 1 mM DTT, pH 6.5. Thereafter, 0 minute and 4 minutes after initiation of the reaction, 600 μl of cold acetone was added to the reaction solution to terminate the reaction. The reaction solution was left at rest at −80° C. for 30 minutes, and it was then centrifuged at 15,000 rpm for 20 minutes. Thereafter, a supernatant was dried using a centrifugal thickener. […] Only the injection amount was changed to 50 μl. In the case of iPRDP and iPRTP, the amount of a reaction solution was determined to be 100 μl, the mass of a protein used was determined to be 0.01 μg, and the reaction time was determined to be 2 minutes.
# LOG protein [2] = target: T1, LOG protein; assay: Detection of enzyme activity of recombinant LOG protein with cytokinin substrates (HPLC); type: biochemical; design: the protein coding region of the LOG gene cDNA was inserted into pCOLD-I (TaKaRa), a His-tag protein expression vector; made in house; host or cells: E. coli BL21(DE3)[pG-Tf2]; conditions: 3 μg LOG protein, 50 μM substrate, pH7, 30° C., 2 hours, HPLC absorption at 270 nm
# Description: The following 8 types of cytokinin substrates were used: N^6-(delta-2-isopentenyl)adenine (iP), trans-zeatin (tZ), cis-zeatin (cZ), iP riboside (iPR), tZ riboside (tZR), cZ riboside (cZR), iPR 5′-monophosphate (iPRMP), and tZR 5′-monophosphate (tZRMP). As reaction conditions, 100 μl of a reaction solution containing 50 mM Tris-HCl, 1 mM MgCl2, and a 50 μM substrate, pH7 was incubated at 30° C. for 2 hours. Thereafter, 10 μl of 20% acetic acid was added to the reaction solution to terminate the reaction, and the reaction solution was then centrifuged at 15,000 rpm at a room temperature for 20 minutes. […] For elution, solvent C (100% acetonitrile) and solvent D (2% acetic acid) were used.
# [3] = Enzyme properties of AtLOG 1, 2, 3, 4, 5, 7 and 8 proteins having iPRMP as substrate; type: biochemical, Arabidopsis thaliana
# Description: In order to obtain the Km value of the LOG protein to typical substrates iPRMP and tZRMP, the following experiment was carried out. 0.02 μg of LOG protein was used for a single reaction, and it was reacted with a substrate in a substrate concentration of each of 5, 8, 15, 30 and 100 μM in 200 μl of a reaction solution containing 50 mM Tris-HCl, 1 mM MgCl2, 1 mM DTT, pH 6.5. Thereafter, 0 minute, 2 minutes and 4 minutes after initiation of the reaction, 600 μl of cold acetone was added to the reaction solution to terminate the reaction. The reaction solution was left at rest at −80° C. for 30 minutes, and it was then centrifuged at 15,000 rpm for 20 minutes. Thereafter, a supernatant was dried using a centrifugal thickener. The resultant was dissolved in 100 μl of 2% acetic acid, and a reaction product was then detected and quantified under the same conditions as those for the liquid chromatography of Example 2. Only the injection amount was changed to 50 μl. The aforementioned experiment was carried out three times, and the Km value was calculated.
# The enzyme activity of each of the purified AtLOG proteins was evaluated under the same reaction conditions as those of Example 2. […] In addition, the enzyme property of each AtLOG protein to iPRMP was determined in the same manner as in Example 5 (Table 4). In Table 4, the Km, Vmax and Kcat values were calculated based on a reaction under the optimal pH condition of each AtLOG protein.
Molecule,reactivity of the substrate with recombinant LOG protein (conversion to base form) (LOG protein [2]),Optimal pH [3],further results
"CC(CO)CCNc1ncnc2c1ncn2C1OC(COP(=O)(O)O)C(O)C1O (stereo not drawn) [DZRMP, dihydrozeatin riboside 5′-monophosphate]",–,–,reactivity of LOG protein to the substrate (substrate specificity) (LOG protein [1]): uses as a substrate
"C/C(=C/CNc1ncnc2nc[nH]c12)CO [cZ, cis-zeatin]",no reactivity,–,–
"C/C(=C/CNc1ncnc2c1ncn2[C@@H]1O[C@H](CO)[C@@H](O)[C@H]1O)CO [cZR, cZ riboside]",no reactivity,–,–
"CC(C)=CCNc1ncnc2nc[nH]c12 [iP, N^6-(delta-2-isopentenyl)adenine]",no reactivity,–,–
"CC(C)=CCNc1ncnc2c1ncn2[C@@H]1O[C@H](CO)[C@@H](O)[C@H]1O [iPR, iP riboside]",no reactivity,–,–
"C/C(=C\CNc1ncnc2nc[nH]c12)CO [tZ, trans-zeatin]",no reactivity,–,–
"C/C(=C\CNc1ncnc2c1ncn2[C@@H]1O[C@H](CO)[C@@H](O)[C@H]1O)CO [tZR, tZ riboside]",no reactivity,–,–
cis-zeatin riboside 5′-monophosphate [cZRMP],–,–,reactivity of LOG protein to the substrate (substrate specificity) (LOG protein [1]): uses as a substrate
B1,–,6.5 pH,–
B2,–,6.5 pH,–
B3,–,6.5 pH,–
B4,–,5.4 pH,–

# — patent US8124834B2, “Use of active cytokinin synthase gene” (Riken, priority 2006, dated 2012)
